Patent US20180353521A1, “METHOD FOR TREATING STROKE OR REDUCING NERVE INJURY” (priority 2017, published 2018)
“Also recorded” adds a separate entry of the source.

Columns and labels:
[1] = Weight analysis in MCAO/reperfusion model; details: 24 hours after MCAO surgery, 50 mg/kg; for retardation in body weight decrease vs vehicle control group: FIG. 5; for body weight, AVG, 24 hr: average value
From the text: (§1) Test animals (250-350 g of male SD rats in this example) were anesthetized with 2% isoflurane in N2O/O2 (70%/30%). The right common carotid artery (right CCA), external carotid artery (ECA), and internal carotid artery (ICA) were isolated.
(§2) Cutting along the midline of the scalp, the nylon monofilament (the front of the nylon monofilament was covered with polysiloxane) was inserted through the external carotid artery along the internal carotid artery and extending to circle of Willis of the brain, resulting in obstruction of the middle cerebral artery. After an hour of ischemia, the nylon monofilament was removed and the brain's blood was reperfused.
(§3) The above-mentioned prevention model experiment further comprised a blank control group (sham) which were undergone no MCAO surgery and administered without the compound; and a vehicle control group (Vehicle) which was undergone MCAO surgery and administered with water in place of the compound.

[2] = system: Middle Cerebral Artery Occlusion, MCAO/Reperfusion Model (ischemic stroke); assay: Neurobehavioral assessment after MCAO surgery; details: 50 mg/kg given 10 minutes before MCAO, 24 hours after MCAO surgery, Student's T test vs Vehicle, FIG. 3
From the text: as §1, §2, §3
Neurobehavioral assessment in one embodiment of the present invention was performed on the rats at 0.5, 1.5 and 24 hours after MCAO surgery on each group of rats, and scored according to the following states.
Score 0: lifting the rat by its tail to about 20 to 30 cm above the ground and observing the state of stretching the forelimbs, at which state the forelimb of the rat could stretch towards the ground with balance and no occurrences of other nerve injuries is shown in FIG. 2(A), representing the normal rat.
Score 1: lifting the rat by its tail to about 20 to 30 cm above the ground and observing the state of stretching the forelimb.
Score 2: the rat was placed on the ground and a lateral thrust was applied. The resistance of the rat to the thrust ipsilateral to the damaged area of the brain was decreased.
Score 3: the rat continued to go around in circles towards the contralateral side of damaged area of the brain and incapable of going straight when it was set free to exercise.
The Student's T test was adopted to determine whether there was difference between the groups administered with each compound and the Vehicle group. If the p value was less than or equal to 0.05, it represented significant difference.

[3] = system: Middle Cerebral Artery Occlusion, MCAO/Reperfusion Model (ischemic stroke); assay: Analysis of brain infarct region (TTC staining) after MCAO; type: in vivo, male SD rats; details: 50 mg/kg given 10 minutes before MCAO; for reduction of brain infarct volume vs vehicle control group: Student's T test; for reduction of infarct size at positions from the front end of the brain: brain taken 24 hours after MCAO, 2 mm slices, FIG. 4B

SMILES	retardation in body weight decrease vs vehicle control group [1]	body weight, AVG, 24 hr [1]	nerve injury (neurobehavioral assessment score) vs Vehicle ([2]; listed as AR-04-155)	reduction of brain infarct volume vs vehicle control group ([3]; 24 hours after MCAO, FIG. 4C, listed as AR-04-155)	reduction of infarct size at positions from the front end of the brain [3]	nerve injury (neurobehavioral assessment score) vs Vehicle [2]	nerve injury (neurobehavioral assessment score) vs Vehicle ([2]; listed as AR-04-415)	total infarct volume (%) of the brain ([3]; 24 hours after MCAO, FIG. 4C)	reduction of brain infarct volume vs vehicle control group ([3]; 24 hours after MCAO, FIG. 4C)	reduction of brain infarct volume vs vehicle control group ([3]; 24 hours after MCAO, FIG. 4C, listed as AR-04-415)	nerve injury (neurobehavioral assessment score) vs Vehicle ([2]; listed as AR-04-18225)	reduction of brain infarct volume vs vehicle control group ([3]; 24 hours after MCAO, FIG. 4C, listed as AR-04-18225)	reduction of infarct size at positions from the front end of the brain ([3]; listed as AR-04-18225)
COc1cc(C)c(OC)c2c1OCO2 [AR-04-15S, 4,7-Dimethoxy-5-methyl-1,3-benzodioxole]	significant retardation in body weight decrease	243.2	recovery tendency; also recorded: significant effects in reducing nerve injury	significant effects in reducing the infarct; also recorded: statistically significant effect in reducing the brain infarct volume	significant effect in reducing the infarct size at 7 mm, 9 mm and 11 mm	–	–	–	–	–	–	–	–
C=C(CC[C@@H](C(=O)O)[C@H]1CC[C@@]2(C)C3=CC[C@H]4C(C)(C)[C@@H](O)CC[C@]4(C)C3=CC[C@]12C)C(C)C [AR-04-41S, dehydroeburicoic acid]	–	266.5	–	–	significant effect in reducing the infarct size at 3 mm, 7 mm, 9 mm, 11 mm, and 13 mm; also recorded: better efficacy at 7 mm	statistically significant in efficacy; also recorded: statistically significant effect in reducing nerve injury	recovery tendency	less than 10%	statistically significant effect in reducing the brain infarct volume	best effect on reducing the infarct volume	–	–	–
C=C(CC[C@@H](C(=O)O)[C@H]1C[C@H](O)[C@@]2(C)C3=CC[C@H]4C(C)(C)[C@@H](O)CC[C@]4(C)C3=CC[C@]12C)C(C)C [AR-04-1822S, dehydrosulphurenic acid (dehydrosulfurenic acid)]	significant retardation in body weight decrease	270.0	–	–	–	statistically significant in efficacy	–	–	significant effects in reducing the infarct	–	recovery tendency; also recorded: statistically significant effect in reducing nerve injury	statistically significant effect in reducing the brain infarct volume	significant effect in reducing the infarct size at 3 mm, 5 mm, 7 mm, 9 mm, 11 mm, and 13 mm; also recorded: significantly better effect in reducing the infarct size at 7 mm and 9 mm
